Data taken from ChEMBL document CHEMBL6078630, “Design, synthesis, and bioactivity investigation of novel cyclic lipopeptide antibiotics targeting top-priority multidrug-resistant gram-negative bacteria” (Eur J Med Chem, 2024).
Converted amounts (≈) assume the structure as drawn. Bridge positions count the residues as written; N and C are the ends. Square brackets hold non-standard residues; d marks the D form. Peptide text beside a SMILES is read from it. * marks the point of attachment. Heptanoyl(6-Me) = CC(C)CCCCC(=O)*; X1 = CC[C@H](C)CCCCC(=O)*; dDap = NC[C@@H](N)C(=O)O; Dab = NCC[C@H](N)C(=O)O

How the values were obtained:
[1] = Renal cytotoxicity against HK-2 cells incubated for 72 hrs by CCK8 assay; assay type: toxicity, cell-based; conditions: human
[2] = Nephrotoxicity against Sprague-Dawley rat assessed as increase in BUN level at 4 mg/kg, iv administered for 7 days by fully automated biochemistry analyzer XR200PLUS; assay type: toxicity, organism-based; conditions: in vivo, 168 h, time 7 day
[3] = Nephrotoxicity against Sprague-Dawley rat assessed as increase in CRE level at 4 mg/kg, iv administered for 7 days by fully automated biochemistry analyzer XR200PLUS; assay type: toxicity, organism-based; conditions: in vivo, 168 h, time 7 day
[4] = Acute toxicity in iv dosed Swiss mouse assessed as maximum tolerated dose measured after 24 hrs; assay type: organism-based; conditions: in vivo
[5] = Protein binding in human plasma assessed as unbound fraction at 0.2 uM incubated for 6 hrs by LC-MS/MS analysis; assay type: ADME, cell-free
Escherichia coli [6] = test: Antibacterial activity against Escherichia coli ATCC BAA-2523 assessed as inhibition of bacterial growth incubated for 16 to 20 hrs by CLSI protocol based broth microdilution method; assay type: functional; conditions: time 16-20 hrs
Acinetobacter baumannii [7] = test: Antibacterial activity against carbapenem-resistant Acinetobacter baumannii clinical isolate ets171 assessed as inhibition of bacterial growth incubated for 24 hrs by CLSI protocol based broth microdilution method; assay type: functional
Klebsiella pneumoniae [8] = test: Antibacterial activity against carbapenem-resistant Klebsiella pneumoniae ATCC BAA-1705 assessed as inhibition of bacterial growth incubated for 16 to 20 hrs by CLSI protocol based broth microdilution method; assay type: functional; conditions: time 16-20 hrs
Klebsiella pneumoniae [9] = test: Antibacterial activity against carbapenem-resistant Klebsiella pneumoniae clinical isolate ets74 assessed as inhibition of bacterial growth incubated for 24 hrs by CLSI protocol based broth microdilution method; assay type: functional
Pseudomonas aeruginosa [10] = test: Antibacterial activity against carbapenem-resistant Pseudomonas aeruginosa clinical isolate ets33 assessed as inhibition of bacterial growth incubated for 24 hrs by CLSI protocol based broth microdilution method; assay type: functional
Escherichia coli [11] = test: Antibacterial activity against carbapenem-resistant Escherichia coli clinical isolate 231016w014 assessed as inhibition of bacterial growth incubated for 24 hrs by CLSI protocol based broth microdilution method; assay type: functional
Pseudomonas aeruginosa [12] = test: Antibacterial activity against carbapenem-resistant Pseudomonas aeruginosa clinical isolate ets22 assessed as inhibition of bacterial growth incubated for 24 hrs by CLSI protocol based broth microdilution method; assay type: functional
Acinetobacter baumannii [13] = test: Antibacterial activity against carbapenem-sensitive Acinetobacter baumannii clinical isolate 19-1 assessed as inhibition of bacterial growth incubated for 16 to 20 hrs by CLSI protocol based broth microdilution method; assay type: functional; conditions: time 16-20 hrs
Pseudomonas aeruginosa [14] = test: Antibacterial activity against carbapenem-resistant Pseudomonas aeruginosa clinical isolate ets83 assessed as inhibition of bacterial growth incubated for 24 hrs by CLSI protocol based broth microdilution method; assay type: functional
Klebsiella pneumoniae [15] = test: Antibacterial activity against carbapenem-resistant Klebsiella pneumoniae clinical isolate ets78 assessed as inhibition of bacterial growth incubated for 24 hrs by CLSI protocol based broth microdilution method; assay type: functional
Escherichia coli [16] = test: Antibacterial activity against carbapenem-resistant Escherichia coli clinical isolate 231109W005 assessed as inhibition of bacterial growth incubated for 24 hrs by CLSI protocol based broth microdilution method; assay type: functional
Pseudomonas aeruginosa [17] = test: Antibacterial activity against carbapenem-resistant Pseudomonas aeruginosa clinical isolate ets85 assessed as inhibition of bacterial growth incubated for 24 hrs by CLSI protocol based broth microdilution method; assay type: functional
Acinetobacter baumannii [18] = test: Antibacterial activity against carbapenem-resistant Acinetobacter baumannii clinical isolate ets104 assessed as inhibition of bacterial growth incubated for 24 hrs by CLSI protocol based broth microdilution method; assay type: functional
Pseudomonas aeruginosa [19] = test: Antibacterial activity against carbapenem-resistant Pseudomonas aeruginosa clinical isolate 19-3 assessed as inhibition of bacterial growth incubated for 16 to 20 hrs by CLSI protocol based broth microdilution method; assay type: functional; conditions: time 16-20 hrs
Acinetobacter baumannii [20] = test: Antibacterial activity against carbapenem-resistant Acinetobacter baumannii clinical isolate ets123 assessed as inhibition of bacterial growth incubated for 24 hrs by CLSI protocol based broth microdilution method; assay type: functional
Escherichia coli [21] = test: Antibacterial activity against carbapenem-resistant Escherichia coli ATCC BAA-2340 assessed as inhibition of bacterial growth incubated for 16 to 20 hrs by CLSI protocol based broth microdilution method; assay type: functional; conditions: time 16-20 hrs
Pseudomonas aeruginosa [22] = test: Antibacterial activity against carbapenem-resistant Pseudomonas aeruginosa clinical isolate ets6 assessed as inhibition of bacterial growth incubated for 24 hrs by CLSI protocol based broth microdilution method; assay type: functional
Pseudomonas aeruginosa [23] = test: Antibacterial activity against carbapenem-resistant Pseudomonas aeruginosa clinical isolate ets49 assessed as inhibition of bacterial growth incubated for 24 hrs by CLSI protocol based broth microdilution method; assay type: functional
Pseudomonas aeruginosa [24] = test: Antibacterial activity against carbapenem-resistant Pseudomonas aeruginosa clinical isolate ets84 assessed as inhibition of bacterial growth incubated for 24 hrs by CLSI protocol based broth microdilution method; assay type: functional
Pseudomonas aeruginosa [25] = test: Antibacterial activity against carbapenem-resistant Pseudomonas aeruginosa clinical isolate ets15 assessed as inhibition of bacterial growth incubated for 24 hrs by CLSI protocol based broth microdilution method; assay type: functional
Acinetobacter baumannii [26] = test: Antibacterial activity against Acinetobacter baumannii NCTC 13304 (OXA-27) assessed as inhibition of bacterial growth incubated for 16 to 20 hrs by CLSI protocol based broth microdilution method; assay type: functional; conditions: time 16-20 hrs
Pseudomonas aeruginosa [27] = test: Antibacterial activity against Pseudomonas aeruginosa ATCC 27853 assessed as inhibition of bacterial growth incubated for 16 to 20 hrs by CLSI protocol based broth microdilution method; assay type: functional; conditions: time 16-20 hrs
Pseudomonas aeruginosa [28] = test: Antibacterial activity against carbapenem-resistant Pseudomonas aeruginosa clinical isolate ets55 assessed as inhibition of bacterial growth incubated for 24 hrs by CLSI protocol based broth microdilution method; assay type: functional
Klebsiella pneumoniae [29] = test: Antibacterial activity against carbapenem-resistant Klebsiella pneumoniae clinical isolate KPN+19-15 assessed as inhibition of bacterial growth incubated for 16 to 20 hrs by CLSI protocol based broth microdilution method; assay type: functional; conditions: time 16-20 hrs
Escherichia coli [30] = test: Antibacterial activity against carbapenem-resistant Escherichia coli clinical isolate 231112E006B assessed as inhibition of bacterial growth incubated for 24 hrs by CLSI protocol based broth microdilution method; assay type: functional
Klebsiella pneumoniae [31] = test: Antibacterial activity against carbapenem-resistant Klebsiella pneumoniae clinical isolate ets26 assessed as inhibition of bacterial growth incubated for 24 hrs by CLSI protocol based broth microdilution method; assay type: functional
Klebsiella pneumoniae [32] = test: Antibacterial activity against carbapenem-resistant Klebsiella pneumoniae clinical isolate ets80 assessed as inhibition of bacterial growth incubated for 24 hrs by CLSI protocol based broth microdilution method; assay type: functional
Acinetobacter baumannii [33] = test: Antibacterial activity against carbapenem-resistant Acinetobacter baumannii clinical isolate ets30 assessed as inhibition of bacterial growth incubated for 24 hrs by CLSI protocol based broth microdilution method; assay type: functional
Pseudomonas aeruginosa [34] = test: Antibacterial activity against carbapenem-resistant Pseudomonas aeruginosa clinical isolate ets5 assessed as inhibition of bacterial growth incubated for 24 hrs by CLSI protocol based broth microdilution method; assay type: functional
Klebsiella pneumoniae [35] = test: Antibacterial activity against carbapenem-resistant Klebsiella pneumoniae clinical isolate ets40 assessed as inhibition of bacterial growth incubated for 24 hrs by CLSI protocol based broth microdilution method; assay type: functional
Pseudomonas aeruginosa [36] = test: Antibacterial activity against carbapenem-resistant Pseudomonas aeruginosa clinical isolate ets104 assessed as inhibition of bacterial growth incubated for 24 hrs by CLSI protocol based broth microdilution method; assay type: functional
Klebsiella pneumoniae [37] = test: Antibacterial activity against carbapenem-resistant Klebsiella pneumoniae clinical isolate ets45 assessed as inhibition of bacterial growth incubated for 24 hrs by CLSI protocol based broth microdilution method; assay type: functional
Pseudomonas aeruginosa [38] = test: Antibacterial activity against carbapenem-resistant Pseudomonas aeruginosa clinical isolate ets38 assessed as inhibition of bacterial growth incubated for 24 hrs by CLSI protocol based broth microdilution method; assay type: functional
Klebsiella pneumoniae [39] = test: Antibacterial activity against carbapenem-resistant Klebsiella pneumoniae clinical isolate ets75 assessed as inhibition of bacterial growth incubated for 24 hrs by CLSI protocol based broth microdilution method; assay type: functional
Klebsiella pneumoniae [40] = test: Antibacterial activity against carbapenem-resistant Klebsiella pneumoniae clinical isolate ets77 assessed as inhibition of bacterial growth incubated for 24 hrs by CLSI protocol based broth microdilution method; assay type: functional
Acinetobacter baumannii [41] = test: Antibacterial activity against carbapenem-resistant Acinetobacter baumannii clinical isolate ets178 assessed as inhibition of bacterial growth incubated for 24 hrs by CLSI protocol based broth microdilution method; assay type: functional

For `CC(C)CCCCC(=O)N[C@@H](CCN)C(=O)N[C@H](C(=O)N[C@@H](CCN)C(=O)N[C@H]1CCNC(=O)[C@H]([C@@H](C)O)NC(=O)[C@H](CCN)NC(=O)[C@H](CCN)NC(=O)[C@H](CC(C)C)NC(=O)[C@@H](Cc2ccccc2)NC(=O)[C@H](CCN)NC1=O)[C@@H](C)O.CC[C@H](C)CCCCC(=O)N[C@@H](CCN)C(=O)N[C@H](C(=O)N[C@@H](CCN)C(=O)N[C@H]1CCNC(=O)[C@H]([C@@H](C)O)NC(=O)[C@H](CCN)NC(=O)[C@H](CCN)NC(=O)[C@H](CC(C)C)NC(=O)[C@@H](Cc2ccccc2)NC(=O)[C@H](CCN)NC1=O)[C@@H](C)O` (X1-[Dab]T[Dab][Dab][Dab][dF]L[Dab][Dab]T; lactam 4-C), the IC50 at 72 h [1] was 66.3 µg/mL, the Activity [2] was “Toxic” and the Activity [3] was “Toxic”. It also gave an MTD at 24 h [4] of 5.4 mg/kg.

With `CC(C)CCCCC(=O)N[C@@H](CCN)C(=O)N[C@H](C(=O)N[C@@H](CCN)C(=O)N[C@H]1CCNC(=O)[C@H]([C@@H](C)O)NC(=O)[C@H](CCN)NC(=O)[C@H](CCN)NC(=O)[C@H](CC(C)C)NC(=O)[C@@H](Cc2ccccc2)NC(=O)[C@H](CCN)NC1=O)[C@@H](C)O` ({Heptanoyl(6-Me)}-[Dab]T[Dab][Dab][Dab][dF]L[Dab][Dab]T; lactam 4-C) the fraction unbound at 6 h, 0.2 µM [5] was 0.099.

In the case of `CC(C)CCCCC(=O)N[C@@H](CCN)C(=O)N[C@H](C(=O)N[C@H](CN)C(=O)N[C@H]1CCNC(=O)[C@H]([C@@H](C)O)NC(=O)[C@H](CCN)NC(=O)[C@H](CCN)NC(=O)[C@H]([C@@H](C)O)NC(=O)[C@@H](Cc2ccccc2)NC(=O)[C@H](CCN)NC1=O)[C@@H](C)O` ({Heptanoyl(6-Me)}-[Dab]T[dDap][Dab][Dab][dF]T[Dab][Dab]T; lactam 4-C), the MIC (Escherichia coli [6]) is reported as ≤ 0.03 µg/mL, the IC50 at 72 h [1] is reported as > 500 µg/mL and the MIC (Acinetobacter baumannii [7]) is reported as 0.5 µg/mL (≈ 0.43 µM). The MIC (Klebsiella pneumoniae [8]) was ≤ 0.03 µg/mL, the MIC (Klebsiella pneumoniae [9]) was 0.5 µg/mL (≈ 0.43 µM) and the MIC (Pseudomonas aeruginosa [10]) was 4 µg/mL (≈ 3.44 µM). For the same molecule, the MIC (Escherichia coli [11]) was < 0.06 µg/mL, the MIC (Pseudomonas aeruginosa [12]) was 2 µg/mL (≈ 1.72 µM) and the MIC (Acinetobacter baumannii [13]) was ≤ 0.03 µg/mL. For the same molecule, the MIC (Pseudomonas aeruginosa [14]) was 0.5 µg/mL (≈ 0.43 µM), the MIC (Klebsiella pneumoniae [15]) was 0.25 µg/mL (≈ 0.215 µM) and the MIC (Escherichia coli [16]) was < 0.06 µg/mL. It also gave an MIC (Pseudomonas aeruginosa [17]) of 0.5 µg/mL (≈ 0.43 µM), an MIC (Acinetobacter baumannii [18]) of 0.06 µg/mL (≈ 0.0516 µM) and an MIC (Pseudomonas aeruginosa [19]) of 0.125 µg/mL (≈ 0.107 µM). For the same molecule, the MIC (Acinetobacter baumannii [20]) was 2 µg/mL (≈ 1.72 µM), the MIC (Escherichia coli [21]) was ≤ 0.03 µg/mL and the MIC (Pseudomonas aeruginosa [22]) was 0.5 µg/mL (≈ 0.43 µM). For the same molecule, the MIC (Pseudomonas aeruginosa [23]) was < 0.06 µg/mL, the MIC (Pseudomonas aeruginosa [24]) was 2 µg/mL (≈ 1.72 µM) and the MIC (Pseudomonas aeruginosa [25]) was 1 µg/mL (≈ 0.86 µM). For the same molecule, the MIC (Acinetobacter baumannii [26]) was ≤ 0.03 µg/mL, the MIC (Pseudomonas aeruginosa [27]) was ≤ 0.03 µg/mL and the MIC (Pseudomonas aeruginosa [28]) was 1 µg/mL (≈ 0.86 µM). For the same molecule, the MIC (Klebsiella pneumoniae [29]) was ≤ 0.03 µg/mL, the MIC (Escherichia coli [30]) was < 0.06 µg/mL and the MIC (Klebsiella pneumoniae [31]) was 0.5 µg/mL (≈ 0.43 µM). For the same molecule, the MIC (Klebsiella pneumoniae [32]) was 0.5 µg/mL (≈ 0.43 µM), the MIC (Acinetobacter baumannii [33]) was 2 µg/mL (≈ 1.72 µM) and the MIC (Pseudomonas aeruginosa [34]) was 1 µg/mL (≈ 0.86 µM). For the same molecule, the MIC (Klebsiella pneumoniae [35]) was 0.125 µg/mL (≈ 0.107 µM), the MIC (Pseudomonas aeruginosa [36]) was 1 µg/mL (≈ 0.86 µM) and the MIC (Klebsiella pneumoniae [37]) was 0.25 µg/mL (≈ 0.215 µM). The MIC (Pseudomonas aeruginosa [38]) was 0.5 µg/mL (≈ 0.43 µM), the MIC (Klebsiella pneumoniae [39]) was 0.5 µg/mL (≈ 0.43 µM) and the MIC (Klebsiella pneumoniae [40]) was 0.5 µg/mL (≈ 0.43 µM). It also gave an MIC (Acinetobacter baumannii [41]) of 1 µg/mL (≈ 0.86 µM).
